The text below walks through data of article PMC10518255, “A first-in-class pan-lysyl oxidase inhibitor impairs stromal remodeling and enhances gemcitabine response and survival in pancreatic cancer” (Nature Cancer, 2023).

The structures appear in SMILES notation. Where “and” joins values, the source holds several entries; their conditions need not be identical. Identical values can stand only once.

The test system of assay [1] is pMLC2. The experiment in a line: Immunohistochemistry of end-point KPC tumors: stromal regions. The format is in vivo, mouse. As to conditions: for Quantification of pMLC2 positive staining in stromal regions: Extended Data 6D, KPC tumours at endpoint, individual FOV. Here is the method: All tissues or matrices, including patient TMAs, were fixed in 10% buffered formalin and embedded in paraffin. The 4-μm sections of samples were deparaffinized with xylene and rehydrated in graded ethanol washes. For immunohistochemistry, Bond Dewax Solution (AR9222) was used. Antigen retrieval was performed using Bond RX H2(30) protocol: HIER 30 min ER1 (citrate pH 6) OR ER2 (EDTA pH 9) at 100 °C. Slides were quenched in BOND Polymer Refine Detection (Leica Biosystems DS9800). […] Slides were digitized on an Aperio slide scanner and representative areas per tumor acquired and analyzed by researchers blinded to the conditions of the experiment.
Extended Data Fig. 6 PXS-5505 in combination with gemcitabine in a KPC model. a. Quantification of proliferating cells (Ki67 positive nuclear staining) in KPC tumors at end point, treated as indicated. 5 fields of view (500 μm × 500 μm) per mouse and 10 mice per cohort were scored. […] Quantification of percent coverage of αSMA positive staining in KPC tumors at end point, treated as indicated. 3 fields of view (1000 μm × 1000 μm) per mouse and 10 mice per cohort were scored. […] Quantification of percent coverage of PDGFR-ß positive staining in KPC tumors at end point, treated as indicated. 3 fields of view (1000 μm × 1000 μm) per mouse and 10 mice per cohort were scored. […] Quantification of pMLC2 positive staining in stromal regions of KPC tumors at end point, treated as indicated. 3 fields of view (500 μm × 500 μm) per mouse and 10 mice per cohort were scored. […] Quantification of tumor vasculature (CD31 positive staining) in KPC tumors at end point, treated as indicated. 3 fields of view (1000 μm × 1000 μm) per mouse and 10 mice per cohort were scored. […] Quantification of STAT3 activation (pSTAT3 positive nuclear staining) in KPC tumors at end point, treated as indicated. 3 fields of view (1000 μm × 1000 μm) per mouse and 5 mice per cohort were scored. […] Scale bars = 100 μm. g Quantification of macrophage infiltration (F4/80 positive staining) in KPC tumors at end point, treated as indicated. […]

The test system of assay [2] is APMA human PDX tumors. The experiment in a line: APMA human PDX model, tumor volumes at end point (Extended Data Fig. 5g). As to conditions: Extended Data 5G; second human PDX model after 3 cycles of treatment; individual animals. The format is in vivo, mouse. Here is the method:
Subcutaneous PDX studies were performed by implanting early passage PDX pieces (~4 mm^3) or TKCC10 CCs (1.5 × 10^6 cells per mouse in 100 μl PBS/Matrigel 1:1) into female (PDX) or male (TKCC10) 8-week-old immunocompromised nude Balb/c-Fox1nuAusb mice subcutaneously on the left flank. For the duration of the study, mice were kept in conventional caging with environmental enrichment, access to standard chow, water ad libitum and 12-h light–dark cycle at ambient temperature and humidity. Treatment began when tumors reached 150 mm^3, where each mouse was randomized into a treatment group and administered gemcitabine HCl (100 mg kg^−1 in saline) (Jomar Life Research) or vehicle control (0.9% saline) by i.p. injection twice weekly on day 2 and 4 of the treatment cycle until an ethical end point was reached. These included maximal tumor mass ≥10% of body weight, weight loss ≥20% from maximum body weight or tumor interfering with mobility and affecting access to food and water. Animals with non-tumor-related complications that led to a premature end point were censored. PXS-5505 (20 mg kg^−1 in saline) or vehicle (0.9% saline) was administered daily by i.p. injection. Tumor size was monitored every second day by calipers. Tumor volume was calculated using the formula (length × width^2)/2. At day 39, mice were killed via CO2 and cervical dislocation and tumors were collected and processed. […]

In assay [3] the test system is KPC PDAC tumors. Kind of assay: Necrosis determined by H&E in end-point KPC tumors. The format is in vivo. As to conditions: KPC tumours at endpoint; one value per mouse, 8 mice per cohort scored (Extended Data 6J). Here is the method: All tissues or matrices were fixed in 10% buffered formalin and embedded in paraffin. The 4-μm sections of samples were deparaffinized with xylene and rehydrated in graded ethanol washes. H&E staining and counterstaining were performed on a Leica autostainer.
Extended Data Fig. 6 PXS-5505 in combination with gemcitabine in a KPC model. a. Quantification of proliferating cells (Ki67 positive nuclear staining) in KPC tumors at end point, treated as indicated. 5 fields of view (500 μm × 500 μm) per mouse and 10 mice per cohort were scored. […] Scale bars = 100 μm b. Quantification of percent coverage of αSMA positive staining in KPC tumors at end point, treated as indicated. 3 fields of view (1000 μm × 1000 μm) per mouse and 10 mice per cohort were scored. […] Scale bars = 100 μm c. Quantification of percent coverage of PDGFR-ß positive staining in KPC tumors at end point, treated as indicated. 3 fields of view (1000 μm × 1000 μm) per mouse and 10 mice per cohort were scored. […] Scale bars = 100 μm d. Quantification of pMLC2 positive staining in stromal regions of KPC tumors at end point, treated as indicated. 3 fields of view (500 μm × 500 μm) per mouse and 10 mice per cohort were scored. […] Quantification of tumor vasculature (CD31 positive staining) in KPC tumors at end point, treated as indicated. 3 fields of view (1000 μm × 1000 μm) per mouse and 10 mice per cohort were scored. […]

Take `Cl.Cl.NC/C=C(\F)CS(=O)(=O)c1cccc2cccnc12.O` [PXS-5505, (Z)-3-fluoro-4-(quinolin-8-ylsulfonyl)but-2-en-1-amine dihydrochloride monohydrate]: in assay [1], the “Quantification of pMLC2 positive staining in stromal regions” value is 16.71 and 49.28 and 7.302 and 93.81 and 91.78 and 78.97 and 53.28 and 54.73 and 45.61 and 13.2 and 20.93 and 42.23 and 36.07 and 17.51 and 40.83 and 47.04 and 47.28 and 39.88 and 19.03 and 15.52 and 73.22 and 64.14 and 60.07 and 90.97 and 8.8 and 20.91 and 61.66 and 4.245 and 28.34 and 17.54. Moreover, the “Tumour volumes at endpoint” value in assay [2] was 111.838 mm3 and 144.188 mm3 and 186.048 mm3 and 277.687 mm3 and 285.67 mm3 and 63.9218 mm3 and 265.041 mm3 and 180.58 mm3 and 65.1463 mm3. In addition, the “necrosis determined by H&E” value in assay [3] was 0 and 2.201 and 15.496 and 22.429 and 2.215.
Take `Nc1ccn([C@@H]2O[C@H](CO)[C@@H](O)C2(F)F)c(=O)n1` [Gem, gemcitabine]: the “Quantification of pMLC2 positive staining in stromal regions” value in assay [1] was 92.08 and 84.2 and 87.45 and 82.3 and 82.92 and 94.71 and 90.49 and 43.06 and 73.39 and 39.68 and 25.28 and 42.05 and 30.69 and 23.6 and 44.73 and 91.07 and 86.73 and 81.83 and 77.4 and 63.11 and 93.35 and 65.58 and 88.53 and 67.95 and 49 and 89.81 and 73.17 and 62.17 and 93.12 and 52.2. In assay [1] (KPC tumors at end point), the “pMLC2 in stromal regions” value is “increased pMLC2”. Besides, the “Tumour volumes at endpoint” value in assay [2] is 145.448 mm3 and 9.626 mm3 and 12.4718 mm3 and 45.315 mm3 and 3.952 mm3 and 50.8335 mm3 and 16.8359 mm3 and 29.7673 mm3 and 51.7185 mm3 and 16.7442 mm3. In addition, the “necrosis determined by H&E” value in assay [3] was 0 and 7.986 and 6.976 and 4.928.
